# Test results taken from US20050228041A1, “Protective and therapeutic uses for tocotrienols” (priority 2003, published 2005).
# Target: T1, Purified 12-lipoxygenase (porcine leukocyte) (Sus scrofa, UniProt P16469)
# T1 construct: purchased Biomol Research labs Inc, Plymouth Meeting, Pa
# T1 sequence (P16469 1-663): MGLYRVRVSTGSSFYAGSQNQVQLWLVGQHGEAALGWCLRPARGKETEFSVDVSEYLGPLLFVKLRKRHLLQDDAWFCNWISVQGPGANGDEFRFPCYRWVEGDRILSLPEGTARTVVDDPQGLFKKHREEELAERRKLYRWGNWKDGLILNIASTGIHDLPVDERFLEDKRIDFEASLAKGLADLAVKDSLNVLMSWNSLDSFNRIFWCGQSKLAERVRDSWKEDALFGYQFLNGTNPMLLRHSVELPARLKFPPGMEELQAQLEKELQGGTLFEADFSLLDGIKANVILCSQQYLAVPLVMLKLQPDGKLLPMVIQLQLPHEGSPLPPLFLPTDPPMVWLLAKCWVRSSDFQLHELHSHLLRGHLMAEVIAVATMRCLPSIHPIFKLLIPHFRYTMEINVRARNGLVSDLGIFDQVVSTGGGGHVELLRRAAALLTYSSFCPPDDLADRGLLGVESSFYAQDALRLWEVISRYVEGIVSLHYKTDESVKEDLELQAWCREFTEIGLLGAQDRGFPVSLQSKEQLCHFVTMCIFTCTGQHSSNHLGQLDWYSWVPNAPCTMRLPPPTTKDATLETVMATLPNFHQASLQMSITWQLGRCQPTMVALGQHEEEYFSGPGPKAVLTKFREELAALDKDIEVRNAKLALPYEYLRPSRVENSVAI
# Assay: Pure 12-lipoxygenase activity with [14C]-arachidonic acid (thin layer chromatography)
# Format: biochemical
# Settings: 10 units enzyme, [14C]-arachidonic acid 25 μM, 30 min, 37° C.
# Protocol: Referring to FIG. 6, HT4 cells were subjected to glutamate treatment for 2 h. […] Purified 12-lipoxygenase (porcine leukocyte; 10 units) was incubated with [^14C]-arachidonic acid (25 μM) for 30 min at 37° C. Arachidonic acid and 12-HETE were resolved using thin layer chromatography as described in Materials & Methods We observed that in HT4 cells, treatment with glutamate mobilized cytosolic 12-LOX protein to the cell membrane (FIGS. 6A&B).
# 12-Lipoxygenase activity. To investigate whether tocotrienol directly affect the activity of 12-LOX (12-LOX), 10 units of 12-LOX (Biomol Research labs Inc, Plymouth Meeting, Pa.) was incubated at room temperature for 15 min with or without tocotrienol as indicated in the respective figure legend. The reaction mixture contained 50 mM Tris HCl, pH 7.4 and 1 mM EDTA. After 15 min, the reaction was initiated by adding 25 μM [1-^14C]-arachidonic acid per sample. Samples were kept at 37° C. for 30 minutes. The reaction was terminated by adding 200 μl of ice-cold stop solution containing diethyl ether, methanol and 1 M citric acid at a ratio of 30:4:1 by volume. After mixing, samples were centrifuged and the ethereal extracts were spotted on a silica gel thin layer plate. […] Distribution of radioactivity of the substrate and products on the plate were quantified using a imaging analyzer.
structure (smiles),measurement,value
CC(C)=CCC/C(C)=C/CC/C(C)=C/CC[C@]1(C)CCc2c(C)c(O)c(C)c(C)c2O1 [α-tocotrienol],inhibition of pure 12-lipoxygenase activity,dose-dependently inhibited
